{"source": "patent US4416898A", "about": "“Therapeutic uses of methionine” (Pharmuka Laboratoires, priority 1982, dated 1983)", "key": {"[1]": {"tested_on": "dopaminergic receptors (B lymphocytes)", "conditions": "[^3 H spiperone] = 1 nM; L-methionine 500 mg/kg I.P. twice daily over 5 days; n = 10; *P < 0.01; control 17 ± 3", "protocol": "(§1) Since nude mice have no thymus gland, all of the lymphocytes of the spleen thereof are of the B type. Thus, these mice have the advantage of presenting pure B lumphocytes for observation. […] The [^3 H] spiperone bindings to striatal membranes (see Europ. J. Pharmacol. 50, 283, 1978) and intact B lymphocytes (see J. Pharm. Pharmacol. 33, 102, 1981) were performed in the same animal."}, "[2]": {"biological_target": "dopaminergic receptors (striatum) (Mus musculus, UniProt P61168)", "sequence (P61168 whole entry)": "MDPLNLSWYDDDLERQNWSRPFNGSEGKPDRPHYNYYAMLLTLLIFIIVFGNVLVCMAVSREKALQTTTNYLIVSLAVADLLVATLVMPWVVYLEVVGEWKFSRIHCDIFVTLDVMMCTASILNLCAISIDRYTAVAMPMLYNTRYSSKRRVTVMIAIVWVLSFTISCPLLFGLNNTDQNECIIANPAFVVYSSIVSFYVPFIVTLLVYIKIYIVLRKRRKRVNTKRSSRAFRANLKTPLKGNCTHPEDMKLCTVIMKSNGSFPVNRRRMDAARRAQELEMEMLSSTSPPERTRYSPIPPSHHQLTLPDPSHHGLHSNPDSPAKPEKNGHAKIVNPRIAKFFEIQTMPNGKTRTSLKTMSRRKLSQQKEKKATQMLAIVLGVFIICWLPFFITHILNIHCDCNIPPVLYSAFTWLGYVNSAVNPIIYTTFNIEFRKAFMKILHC", "protocol": "as §1"}, "[3]": {"test": "Water solubility and wettability of L-methionine", "type": "physicochemical", "conditions": "flakes"}, "Parkinsonian patients": {"tested_on": "Parkinsonian patients", "conditions": "11 patients, 5 g/day, after 2 weeks, especially on akinesia, tremor and mood"}, "[4]": {"tested_on": "[^3 H] spiperone binding sites (lymphocytes from Parkinsonian patients)", "conditions": "after treatment, before treatment 7±6"}, "rats": {"tested_on": "rats", "conditions": "IV; cited from earlier work"}, "Parkinsonism": {"tested_on": "Parkinsonism", "conditions": "with L-Dopa; J. Amer. Med. Assoc. 230, 305, 1974; cited from earlier work"}}, "data": [{"smiles": "CSCC[C@H](N)C(=O)O", "note": "[L-methionine]", "values": [{"measurement": "[^3 H] spiperone binding, B lymphocytes", "setting": "[1]", "value": "37 ± 5", "unit": "fmoles/10^6 cells"}, {"measurement": "affinity constant [KD]", "setting": "[2]; KD of [^3 H] spiperone (not of L-methionine), striatum of treated mice, chronic treatment, control 0.17 nM", "value": 0.20, "unit": "nM"}, {"measurement": "[^3 H] spiperone binding, striatum", "setting": "[2]; [^3 H spiperone] = 0.3 nM, L-methionine 500 mg/kg I.P. twice daily over 5 days, n = 10, **P < 0.001, control 40 ± 1", "value": "62 ± 3", "unit": "fmoles/mg protein"}, {"measurement": "number of binding sites [Bmax]", "setting": "[2]; [^3 H] spiperone, striatum of treated mice, chronic treatment, control 302", "value": 491, "unit": "fmoles/mg protein"}, {"measurement": "change in affinity constant [KD]", "setting": "[2]; [^3 H] spiperone, striatum, chronic treatment of L-methionine", "value": "no change in the affinity constant was detected"}, {"measurement": "solubility in water", "setting": "[3]", "value": "slightly soluble in water"}, {"measurement": "wettability", "setting": "[3]", "value": "poorly wettable"}, {"measurement": "improvement of Parkinsonism", "setting": "Parkinsonian patients", "value": "very good improvement"}, {"measurement": "number of [^3 H] spiperone binding sites to lymphocytes", "setting": "[4]", "value": "98±19", "unit": "fentomoles per 10^6 cells"}, {"measurement": "LD50", "setting": "rats", "value": 4500, "unit": "mg/kg"}, {"measurement": "effect on L-Dopa effectiveness in Parkinsonism", "setting": "Parkinsonism", "value": "may reverse the effectiveness of L-Dopa"}]}]}
